Laboratory results from patent US12048686B2, “Compositions and methods for activating NRF2-dependent gene expression” (The University of Chicago, priority 2018, dated 2024).
“Also recorded” adds a separate entry of the source.

How the values were obtained:
Human lung fibroblasts = assay: TGF-beta-induced collagen and SMA in human lung fibroblasts (Western blot); format: cell-based; conditions: increasing doses, day 0, 1, 2
Experimental: FIG. 22. Human lung fibroblasts were treated with TGF-beta and increasing doses of CBR-470 and measured collagen and alpha-smooth muscle actin (a-SMA), a marker for myofibroblast differentiation at day 0, 1, and 2.
Fibrosis is defined by the overgrowth, hardening, and/or scarring of various tissues and is attributed to excess deposition of extracellular matrix components including collagen. Fibrosis is the end result of chronic inflammatory reactions induced by a variety of stimuli including persistent infections, autoimmune reactions, allergic responses, chemical insults, radiation, and tissue injury. Fibroblasts under stimulation by transforming growth factor (TGF)-β, a key cytokine in the pathogenesis of IPF, alter their gene expression profile with de novo expression of cytoskeletal and contractile proteins normally found within smooth muscle cells, and components of the extracellular matrix, including collagen. Fibroblast cells were treated with TGF-β for 24 or 48 hours or left untreated (0). Collagen was detected by Westernblot using an anti-collagen antibody (Cedarlane, CL50111AP-1, 1:3000 dilution). SMA was detected with an anti-SMA antibody from Sigma (T6074, 1:20000 dilution). […] Collagen and SMA production are biomarkers of fibrotic phenotypes in vivo (FIG. 22).

IMR32 cells = assay: IMR32 viability with co-treatments (cell titer glo); format: cell-based; conditions: IMR32 cells, 48 hrs, combinations of doses with BBGC
Experimental: FIG. 38. PGK1 toxicity can be rescued with metabolites that are involved with GSH biosynthesis and quenching of reactive oxygen species and methylglyoxal. […] IMR32 cells treated for 48 hr in presence of indicated drugs.
PGK1 toxicity can be rescued with metabolites that are involved with GSH biosynthesis and quenching of reactive oxygen species and methylglyoxal.
IMR32 cells were treated for 48 hrs with CBR-470-1 and/or BBGC at combinations of doses in a synergy matrix (FIG. 41). […] Viability measured using cell titer glo assay (Promega). Viability decreased at higher concentrations of CBR-470-1 and BBGC start at 5 uM. […] Sensitivity of cell lines to direct inhibition of GLO1 (which detoxifies MGO) is generally correlated with sensitivity to PGK1 inhibition with CBR-470-1-consistent with MGO buildup playing a role in toxicity.

KEAP1 = target: T1, KEAP1 (Homo sapiens, UniProt Q14145); assay: MGx dose-response HMW-KEAP1 formation in FLAG-KEAP1 lysates or purified KEAP1; format: biochemical; conditions: FLAG-KEAP1 containing lysates or purified KEAP1, freshly distilled MGx
T1 construct: full-length, human KEAP1 (28023, Addgene) was transiently expressed from a pcDNA/FRT/TO plasmid with a C-terminal 3×FLAG tag; host or cells: HEK293T
T1 sequence (Q14145 whole entry): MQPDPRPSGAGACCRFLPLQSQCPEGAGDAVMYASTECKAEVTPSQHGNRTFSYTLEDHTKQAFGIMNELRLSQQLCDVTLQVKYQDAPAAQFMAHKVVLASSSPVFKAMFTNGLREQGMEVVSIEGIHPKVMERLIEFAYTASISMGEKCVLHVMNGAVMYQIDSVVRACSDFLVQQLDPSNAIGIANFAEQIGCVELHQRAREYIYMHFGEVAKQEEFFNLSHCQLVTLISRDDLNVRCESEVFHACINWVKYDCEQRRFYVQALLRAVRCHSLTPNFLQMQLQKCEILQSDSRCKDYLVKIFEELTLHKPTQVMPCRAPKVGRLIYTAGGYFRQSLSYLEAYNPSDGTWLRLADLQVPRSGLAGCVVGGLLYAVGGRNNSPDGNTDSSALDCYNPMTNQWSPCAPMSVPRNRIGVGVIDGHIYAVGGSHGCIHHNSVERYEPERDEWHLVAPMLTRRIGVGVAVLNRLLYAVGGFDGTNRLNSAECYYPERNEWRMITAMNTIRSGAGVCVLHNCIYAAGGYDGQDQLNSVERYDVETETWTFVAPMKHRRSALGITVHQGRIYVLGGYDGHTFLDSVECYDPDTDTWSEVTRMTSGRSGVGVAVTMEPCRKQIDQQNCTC
Experimental: Metabolite Treatments and HMW-KEAP1 screening. For in vitro screening of glycolytic metabolites, HEK293T cells expressing FLAG-KEAP1 were lysed by snap-freeze-thaw cycles (3×) in PBS, pH 7.4, containing EDTA-free complete protease inhibitor (Roche). Lysates were cleared by centrifugation and the supernatants normalized for concentration by Bradford reagent (2 mg/mL). Concentrated stocks of each metabolite were made in PBS, which were added to the lysate samples for the final indicated concentrations and incubated at 37° C. for 2.5 hours with shaking. Following incubation, samples were denatured with 6 M urea and processed for SDS-PAGE and western blotting. Methylglyoxal (40% v/v with H2O), glyceraldehyde 3-phosphate (GAP), dihydroxyacetone phosphate (DHAP), and 2,3-bisphosphoglycerate (2,3-BPG) were all obtained from Sigma Aldrich and used as PBS stocks. […] Each mixture was incubated at 37° C. for 8 hours with rotating, HMW-KEAP1 formation was analyzed by SDS-PAGE and western blot.
For studies with recombinant KEAP1, FLAG-KEAP1 was expressed in HEK293T cells from transient transfection of the Flag-Keap1 plasmid (Addgene plasmid #28023). […] 12 μL of this reaction was then separated by SDS-PAGE and the presence of HMW-KEAP1 evaluated by anti-FLAG Western blotting as described or by silver staining using the Pierce Silver Stain Kit (ThermoFisher Scientific).

SMILES | alpha-smooth muscle actin (a-SMA), marker for myofibroblast differentiation (Human lung fibroblasts) | collagen protein (Human lung fibroblasts) | viability in synergy matrix with BBGC (IMR32 cells) | formation of HMW-KEAP1 (KEAP1)
CC(C)CN[C@H]1CS(=O)(=O)C[C@@H]1S(=O)(=O)c1ccc(Cl)cc1 [CBR-470-1] | dose- and time-dependent inhibition of collagen and smooth-muscle actin (SMA) protein production; also recorded: inhibited myofibroblast differentiation and collagen protein expression in a dose dependent manner | dose- and time-dependent inhibition of collagen and smooth-muscle actin (SMA) protein production; also recorded: inhibited myofibroblast differentiation and collagen protein expression in a dose dependent manner | synergistic effects on viability rather than additivity | 
CC(=O)C=O [MGx, methylglyoxal, reference compound] |  |  |  | dose-dependent formation of HMW-KEAP1 at mid-μM concentrations
